Where “and” joins values, the source holds several entries; their conditions need not be identical. Identical values can stand only once. Like-named read-outs stand apart in the source and are kept apart here.
How the values were obtained:
2019-nCov [1] = conditions: positive control, stated as existing value; read-out: EC50 of existing positive compound CQ against 2019-nCoV virus replication; cited from earlier work
[2] = target: T1, 3CL protease of 2019 Novel Coronavirus (2019-nCoV 3CLpro) (Severe acute respiratory syndrome coronavirus 2, UniProt P0DTD1); test: FRET inhibitory activity against 3CL protease of 2019 Novel Coronavirus; assay type: biochemical; conditions: for inhibition at 1 µM: read-out: Inhibition rate (1 μM), 3CL protease of 2019 Novel Coronavirus
T1 construct: the 3CL protease of 2019 Novel Coronavirus (2019-nCoV 3CL^pro)

[3] = Half-toxic concentration (CC50) with CCK8 kit; assay type: cell-based; conditions: African green monkey, Vero E6 cells, in duplicate
Description: In this example, the half-toxic concentrations (CC50) of some compounds of the present invention to Vero E6 cells were determined with CCK8 kit in duplicate.

2019-nCov [4] = test: Inhibitory activity against the replication of 2019-nCov (cytopathic effect, MTS); assay type: cell-based; conditions: for anti-virus activity against 2019-nCoV (in words): viral level, compared with positive control CQ; for EC50: Severe acute respiratory syndrome coronavirus 2, gradient concentrations, CQ as positive control, read-out: EC50 against 2019-nCoV virus replication
[5] = FRET, tables 1A/1B, read-out: IC50 (nM) of SARS-CoV-2 3 CL protease
[6] = read-out: IC50 against 2019-nCoV 3CL protease

| SMILES | IC50 [2, 5] [nM] | inhibition at 1 µM ([2]; compound at 1 μM) [%] | IC50 [2, 6] | inhibition at 1 µM [2] [%] | also measured |
| --- | --- | --- | --- | --- | --- |
| CCN(CC)CCCC(C)Nc1ccnc2cc(Cl)ccc12 (stereo not shown) [CQ] |  |  |  |  | EC50 (2019-nCov [1]): 1.13 µM |
| CC(C)[C@H](NC(=O)c1cc2ccccc2[nH]1)C(=O)N[C@@H](CC1CCCCC1)C(=O)N[C@H](C=O)C[C@@H]1CCNC1=O [Compound 5, N-{(S)-3-methyl-1-carbonyl-1-{{(S)-1-carbonyl-1-{{(S)-1-carbonyl-3-[(S)-2-carbonylpyrrolidin-3-yl]propan-2-yl}amino}-3-cyclohexylpropan-2-yl}amino}butan-2-yl}indole-2-carboxamide] | 33.6 ± 3.45 | 95.7 | < 100 nM |  |  |
| Cc1cc(C(=O)N[C@H](C(=O)N[C@@H](CC2CCCCC2)C(=O)N[C@H](C=O)C[C@@H]2CCNC2=O)C(C)C)no1 [Compound 6, 5-Methyl-N-{(S)-3-methyl-1-carbonyl-1-{{(S)-1-carbonyl-1-{{(S)-1-carbonyl-3-[(S)-2-carbonylpyrrolidin-3-yl]propan-2-yl}amino}-3-cyclohexylpropan-2-yl}amino}butan-2-yl}isoxazole-3-carboxamide] | 48.5 ± 3.17 | 95.8 | < 100 nM |  |  |
| CC(C)[C@H](NC(=O)c1cc2ccccc2[nH]1)C(=O)N[C@@H](Cc1ccccc1)C(=O)N[C@H](C=O)C[C@@H]1CCNC1=O [Compound 9, N-{(S)-3-methyl-1-carbonyl-1-{{(S)-1-carbonyl-1-{{(S)-1-carbonyl-3-[(S)-2-carbonylpyrrolidin-3-yl]propan-2-yl}amino}-3-phenylpropan-2-yl}amino}butan-2-yl}indole-2-carboxamide] | 68.1 ± 12.5 | 95.8 | < 100 nM |  |  |
| CC(C)[C@H](NC(=O)c1cc2ccccc2o1)C(=O)N[C@@H](Cc1ccccc1)C(=O)N[C@H](C=O)C[C@@H]1CCNC1=O [Compound 10, N-{(S)-3-methyl-1-carbonyl-1-{{(S)-1-carbonyl-1-{{(S)-1-carbonyl-3-[(S)-2-carbonylpyrrolidin-3-yl]propan-2-yl}amino}-3-phenylpropan-2-yl}amino}butan-2-yl}benzofuran-2-carboxamide] | 67.5 ± 13.9 | 88.2 | < 100 nM |  |  |
| CC(C)[C@H](NC(=O)c1ccc2ccccc2n1)C(=O)N[C@@H](Cc1ccccc1)C(=O)N[C@H](C=O)C[C@@H]1CCNC1=O [Compound 11, N-{(S)-3-methyl-1-carbonyl-1-{{(S)-1-carbonyl-1-{{(S)-1-carbonyl-3-[(S)-2-carbonylpyrrolidin-3-yl]propan-2-yl}amino}-3-phenylpropan-2-yl}amino}butan-2-yl}quinoline-2-carboxamide] | 179 ± 29.4 | 89.7 |  |  |  |
| O=C[C@H](C[C@@H]1CCNC1=O)NC(=O)[C@H](Cc1ccc(F)c(F)c1)NC(=O)c1cc2ccccc2[nH]1 [Compound 12] | 87 ± 8 | 103 | < 100 nM |  |  |
| CC(C)[C@H](NC(=O)c1ccc2ccccc2n1)C(=O)N[C@@H](CC1CCCCC1)C(=O)N[C@H](C=O)C[C@@H]1CCNC1=O [Compound 16, N-{(S)-3-methyl-1-carbonyl-1-{{(S)-1-carbonyl-1-{{(S)-1-carbonyl-3-[(S)-2-carbonylpyrrolidin-3-yl]propan-2-yl}amino}-3-cyclohexylpropan-2-yl}amino}butan-2-yl}quinoline-2-carboxamide] | 74 | 89.1 | < 100 nM and 73.5 nM |  | CC50 [3]: > 100 µM; anti-virus activity against 2019-nCoV (in words) (2019-nCov [4]): excellent anti-virus activity |
| CC(C)[C@H](NC(=O)c1cc2ccccc2o1)C(=O)N[C@@H](CC1CCCCC1)C(=O)N[C@H](C=O)C[C@@H]1CCNC1=O [Compound 17, N-{(S)-3-methyl-1-carbonyl-1-{{(S)-1-carbonyl-1-{{(S)-1-carbonyl-3-[(S)-2-carbonylpyrrolidin-3-yl]propan-2-yl}amino}-3-cyclohexylpropan-2-yl}amino}butan-2-yl}benzofuran-2-carboxamide] | 61 ± 12.5 | 106 | < 100 nM |  |  |
| CC(C)[C@H](NC(=O)c1cc2cccc(Br)c2o1)C(=O)N[C@@H](CC1CCCCC1)C(=O)N[C@H](C=O)C[C@@H]1CCNC1=O [Compound 18, 7-Bromo-N-{(S)-3-methyl-1-carbonyl-1-{{(S)-1-carbonyl-1-{{(S)-1-carbonyl-3-[(S)-2-carbonylpyrrolidin-3-yl]propan-2-yl}amino}-3-cyclohexylpropan-2-yl}amino}butan-2-yl}benzofuran-2-carboxamide] | 238 ± 18.7 | 97.8 |  |  |  |
| Cc1cc2ccccc2nc1C(=O)N[C@H](C(=O)N[C@@H](CC1CCCCC1)C(=O)N[C@H](C=O)C[C@@H]1CCNC1=O)C(C)C [Compound 19, 3-Methyl-N-{(S)-3-methyl-1-carbonyl-1-{{(S)-1-carbonyl-1-{{(S)-1-carbonyl-3-[(S)-2-carbonylpyrrolidin-3-yl]propan-2-yl}amino}-3-cyclohexylpropan-2-yl}amino}butan-2-yl}quinoline-2-carboxamide] | 62.7 ± 8.97 | 98.3 | < 100 nM |  |  |
| CC(C)[C@H](NC(=O)c1cc2cc(Cl)ccc2o1)C(=O)N[C@@H](CC1CCCCC1)C(=O)N[C@H](C=O)C[C@@H]1CCNC1=O [Compound 20, 5-Chloro-N-{(S)-3-methyl-1-carbonyl-1-{{(S)-1-carbonyl-1-{{(S)-1-carbonyl-3-[(S)-2-carbonylpyrrolidin-3-yl]propan-2-yl}amino}-3-cyclohexylpropan-2-yl}amino}butan-2-yl}benzofuran-2-carboxamide] | 150 ± 9.55 | 101 |  |  |  |
| CC(C)[C@H](NC(=O)c1cc2ccccc2s1)C(=O)N[C@@H](CC1CCCCC1)C(=O)N[C@H](C=O)C[C@@H]1CCNC1=O [Compound 24] | 132 ± 14.7 | 93.3 |  |  |  |
| CC(C)[C@H](NC(=O)c1cc2ccccc2[nH]1)C(=O)N[C@@H](CC1CCC(F)C(F)C1)C(=O)N[C@H](C=O)C[C@@H]1CCNC1=O (stereo partly shown) [Compound 35] |  |  |  | 94.3 |  |
| O=C[C@H](C[C@@H]1CCNC1=O)NC(=O)[C@H](Cc1ccccc1)NC(=O)c1cc2cc(F)ccc2[nH]1 [Compound 45] |  |  |  | 85.2 |  |
| O=C[C@H](C[C@@H]1CCNC1=O)NC(=O)[C@H](Cc1ccccc1)NC(=O)c1cc2ccc(F)cc2[nH]1 [Compound 46] |  |  |  | 89.3 |  |
| O=C[C@H](C[C@@H]1CCNC1=O)NC(=O)[C@H](CC1CCCCC1)NC(=O)c1cc2c(Cl)cc(Cl)cc2[nH]1 [Compound 47] |  |  |  | 90.4 |  |
| O=C[C@H](C[C@@H]1CCNC1=O)NC(=O)[C@H](CC1CCCCC1)NC(=O)c1cc2ccccc2[nH]1 [Compound 48] |  |  |  |  | CC50 [3]: > 100 µM; EC50 (2019-nCov [4]): 0.29 µM; anti-virus activity against 2019-nCoV (in words) (2019-nCov [4]): better than that of the positive control CQ; anti-virus activity against 2019-nCoV (in words) (2019-nCov [4]; listed as 2234): excellent anti-virus activity |
| Cn1c(C(=O)N[C@@H](CC2CCCCC2)C(=O)N[C@H](C=O)C[C@@H]2CCNC2=O)cc2ccccc21 [Compound 49] |  |  |  | 91.2 |  |
| COc1ccc2[nH]c(C(=O)N[C@@H](CC3CCCCC3)C(=O)N[C@H](C=O)C[C@@H]3CCNC3=O)cc2c1 [Compound 50] |  |  |  | 89.1 |  |
| O=C[C@H](C[C@@H]1CCNC1=O)NC(=O)[C@H](CC1CCCCC1)NC(=O)c1cc2c(F)cccc2[nH]1 [Compound 51] |  |  |  | 84.6 |  |
| O=C[C@H](C[C@@H]1CCNC1=O)NC(=O)[C@H](CC1CCCCC1)NC(=O)c1cc2ccccc2s1 [Compound 56] |  |  |  | 81.3 |  |
| O=C[C@H](C[C@@H]1CCNC1=O)NC(=O)[C@H](CC1CCCCC1)NC(=O)c1nc2ccccc2[nH]1 [Compound 57] |  |  |  | 92.3 |  |
| O=C[C@H](C[C@@H]1CCNC1=O)NC(=O)[C@H](CC1CCCCC1)NC(=O)c1cnc2ccccc2n1 [Compound 59] |  |  |  | 86.7 |  |
| O=C[C@H](C[C@@H]1CCNC1=O)NC(=O)[C@H](Cc1cccc(F)c1)NC(=O)c1cc2ccccc2[nH]1 [Compound 81] |  |  | < 100 nM |  | CC50 [3]: > 100 µM; EC50 (2019-nCov [4]): 0.33 ± 0.09 µM; anti-virus activity against 2019-nCoV (in words) (2019-nCov [4]): better than that of the positive control CQ; anti-virus activity against 2019-nCoV (in words) (2019-nCov [4]; listed as 2259): excellent anti-virus activity |
| O=C[C@H](C[C@@H]1CCNC1=O)NC(=O)[C@H](Cc1ccc(F)cc1)NC(=O)c1cc2ccccc2[nH]1 [Compound 82] | 103 ± 13 | 101 |  |  |  |
| O=C[C@H](C[C@@H]1CCNC1=O)NC(=O)[C@H](Cc1cccc(F)c1)NC(=O)c1cc2c(F)ccc(F)c2[nH]1 [Compound 83, 4,7-Difluoron-{(S)-1-carbonyl-1-{{(S)-1-carbonyl-3-[(S)-2-carbonylpyrrolidin-3-yl]propan-2-yl}amino}-3-3fluorophenylpropan-2-yl}-1H-indole-2-carboxamide] | 113 ± 9 | 97.8 |  |  |  |

Reference: patent publication US20230138310A1 (priority 2020, published 2023)
